Molecules are shown by their SMILES.

The test system of assay [1] is PKG activity in HCT116 cells. The experiment in a line: PKG activity in HCT116 cells. The class given is cell-based. The text has this:
To test the effect of cGMP-specific PDE inhibition on neoplasia containing the β-catenin mutation, HCT116 colon cancer cells were employed. HCT116 is known to contain the β-catenin mutation, but is known not to contain the APC mutation.
The same procedure is used to grow the HCT116 cells as is used in the SW480 procedure described above. In this experiment, only exisulind and controls were used.

Another assay concerns PKG in SW480 cells. The experiment in a line: PKG expression by Western blot in SW480 cells. It counts as cell-based, human. As to conditions: 48 hours. Here is the method: This increase in PKG protein expression was further verified by relatively quantative western blot, as described below.
SW480 cells treated with exisulind as described previously are harvested from the microfuge tubes by rinsing once with ice-cold PBS. The cells are lysed by modified RIPA buffer for 15 minutes with agitation. The cell lysate is spun down in a cold room. The supernatants are transferred to fresh microcentrifuge tubes immediately after spinning. BioRad DC Protein Assay (Temecula, Calif.) is performed to determine the protein concentrations in samples. The samples are normalized for protein concentration, as described above.
50 μg of each sample is loaded to 10% SDS gel. SDS-PAGE is performed, and the proteins then are transferred to a nitrocellulose membrane. The blotted nitrocellulose membrane are blocked in freshly prepared TBST containing 5% nonfat dry milk for one hour at room temperature with constant agitation.
A goat-anti-PKG primary antibody is diluted to the recommended concentration/dilution in fresh TBST/5% nonfat dry milk. The nitrocellulose membrane is placed in the primary antibody solution and incubated one hour at room temperature with agitation. The nitrocellulose membrane is washed three times for ten minutes each with TBST. […]
(In general: Immunoblotting shows a protein as a band on a membrane.)

In assay [2] the test system is polyp formation in adenomatous polyposis coli patients. Nature of the assay: Human clinical study in APC patients, polyp formation. The class given is in vivo. As to the method:
A human clinical study was performed in APC patients, selecting exisulind in each instance. In that study, each patient had already had his/her colon removed, except for a small section of colon adjacent the rectum (where the small intestine was attached) to preserve rectal function. However, such a patient commonly forms polyps in the small remaining colonic section, which polyps require periodic removal (e.g., by electrocautery).
That trial where exisulind was selected was a prevention trial designed to compare the cumulative number of new polyps formed over twelve months by the drug and placebo groups. Eligible patients were those who form between 9 and 44 polyps per year. Patients were fully ablated (had all polyps removed) at the start of the study, at the end of 6 months and at the end of 12 months. The study enrolled thirty-four eligible patients. […] Based on the median number of polyps produced in the first six months of the study, patients treated with exisulind developed approximately one-third the number of polyps as patients treated with placebo (median values 9 polyps/year and 26 polyps/year, respectively; p=0.013). Based on the median number of polyps produced over the entire 12 months of the study, patients treated with exisulind produced approximately half the number of polyps as patients treated with placebo (median values 18 polyps/year and 38 polyps/year, respectively; p=0.020).

Assay [3] has as its system colon, breast, lung, prostate, kidney, and melanoma neoplasias. As to conditions: cited from earlier work.

Consider `CC1=C(CC(=O)O)c2cc(F)ccc2/C1=C\c1ccc(S(C)(=O)=O)cc1` [Exisulind, 5-fluoro-2-methyl-1-(p-methylsulfonylbenzylidene)-3-indenylacetic acid], for which the “PKG activity relative to control” value in assay [1] is given as “phosphorylated to a greater extent than the corresponding controls”. For the same molecule, the “PKG level by Western blot” value in the assay with PKG in SW480 cells is given as “increase of PKG”. The “number of polyps relative to placebo, 12 months” value in assay [2] (entire 12 months) was “approximately half”. For the same molecule, the “median number of polyps, 12 months” value in assay [2] (entire 12 months, placebo 38 polyps/year) is on record as 18 polyps/year. In assay [2] (first six months), the “number of polyps relative to placebo, first six months” value is recorded as “approximately one-third”. In addition, the “median number of polyps, first six months” value in assay [2] (first six months, placebo 26 polyps/year) came to 9 polyps/year. The “decrease of rate of polyp formation” value in assay [2] (vs placebo) is “clinically and statistically significantly better than placebo in decreasing the rate of polyp formation”. Further, the “reported anti-neoplastic effects” value in assay [3] was “anti-neoplastic effects on colon, breast, lung, prostate, kidney, and melanoma neoplasias”.
